Where a name gives a salt, the structure may show the parent alone. Read-outs that look alike come from different tables or passages of the source.
Columns and labels:
[1] = tested on: normal human fibroblast, IMR90; experiment: Calcein AM viability assay, IMR90; type: cell-based; conditions: IMR-90, text b600
Description: The potency of the subject kinase inhibitors, as measured by loss of cellular viability, was determined with the Calcein AM assay (Molecular Probes). Calcein AM is a substrate of intracellular esterases, which is cleaved only in viable cells to generate a fluorescent product that can be quantified with a fluorescent plate reader. The fluorescent signal is proportional to the number of viable cells, and thus loss of signal in response to the exposure of cells to the subject kinase inhibitors correlates with a loss of viability. This assay not only distinguishes cell cycle arrest, in which cells may still by viable, from loss of viability, and is thus well suited for the evaluation of the subject kinase inhibitors. A compound that is a potent cytotoxic agent may cause significant loss of cell viability in such an assay.
Cellular IC50's were determined in the human colorectal carcinoma cell line, HCT-116, and the normal human fibroblast, IMR90. Protein adjusted IC50's were also determined in HCT-116. Results of such viability assays are presented in Table 2 (HCT-116 (viability/protein adjusted) and IMR-90). IC50's (μM, non-protein adjusted) for the viability assay against HCT-116 cells are shown for further compounds of the invention in Table 4.
HCT-116 or IMR90 cells were recovered from sub-confluent plates by trypsinization and 1,000 or 4,000 cells, respectively, were plated in 24-well dishes and incubated overnight at 37° C., 5% CO2. HCT-116 cells were cultured in RPMI-1640, 10% FCS, and IMR90 cells were cultured in Minimum Essential Medium-alpha, 10% FCS. After overnight incubation to allow adherence, the media was aspirated from each well and replaced with media containing a test compound at a concentration from 0 to 250 nM, spanning a total of 7 doses. The plates were returned to the incubator and cultured for an additional 72 hours (3 days). […] After 72-hours incubation with the test compound, the cells were washed twice with 1×PBS, taking special care to remove all residual buffer.
A 5 μM Calcein AM solution was prepared by dissolving a 50 μg aliquot of Calcein (Molecular Probes catalog #C3100) in 50 μl DMSO. After the Calcein had completely dissolved (10 minutes at room temperature), it was diluted into 10 ml PBS. Calcein/PBS (0.5 ml) was added to each well. The plates were incubated for 75 minutes at 37° C. (protected from light) and the fluorescent signal was read on a fluorescent plate reader (excitation 485/20 and emission 530/25).

Cdk5 = Cdk5 (Homo sapiens, UniProt Q00535); experiment: Cdk5 inhibition; type: biochemical
Cdk5, sequence (Q00535 whole entry, species assumed): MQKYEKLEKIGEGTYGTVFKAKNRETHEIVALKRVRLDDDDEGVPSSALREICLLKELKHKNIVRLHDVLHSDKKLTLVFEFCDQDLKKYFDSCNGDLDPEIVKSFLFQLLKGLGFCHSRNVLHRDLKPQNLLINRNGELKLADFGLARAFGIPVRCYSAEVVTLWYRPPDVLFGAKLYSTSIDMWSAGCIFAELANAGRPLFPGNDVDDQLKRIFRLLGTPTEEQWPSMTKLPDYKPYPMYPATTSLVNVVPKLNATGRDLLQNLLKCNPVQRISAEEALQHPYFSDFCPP
Cdk5, sequence (Q15078 whole entry partner, species assumed): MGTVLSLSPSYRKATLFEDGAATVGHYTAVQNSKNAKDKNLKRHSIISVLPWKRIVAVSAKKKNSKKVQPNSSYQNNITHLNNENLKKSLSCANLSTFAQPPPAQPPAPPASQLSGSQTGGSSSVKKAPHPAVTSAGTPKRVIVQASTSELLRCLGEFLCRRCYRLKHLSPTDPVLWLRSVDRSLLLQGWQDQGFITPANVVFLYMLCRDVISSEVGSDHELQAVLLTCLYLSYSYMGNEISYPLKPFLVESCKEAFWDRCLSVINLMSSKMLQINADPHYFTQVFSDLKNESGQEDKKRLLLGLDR
Text: Further inhibition results for subject compounds of the invention against other CDKs and further kinases are shown in Table 5, Table II and described in Example 6.
Table 3, Table 4, Table 5 and Table II show the results obtained for inhibition of a broad range of such kinases for subject compounds of the invention.

Lyn = target: T1, Lyn (Homo sapiens, UniProt P07948); experiment: Lyn kinase assay; type: biochemical
T1 construct: purchased Upstate 14-510
T1 sequence (P07948 whole entry): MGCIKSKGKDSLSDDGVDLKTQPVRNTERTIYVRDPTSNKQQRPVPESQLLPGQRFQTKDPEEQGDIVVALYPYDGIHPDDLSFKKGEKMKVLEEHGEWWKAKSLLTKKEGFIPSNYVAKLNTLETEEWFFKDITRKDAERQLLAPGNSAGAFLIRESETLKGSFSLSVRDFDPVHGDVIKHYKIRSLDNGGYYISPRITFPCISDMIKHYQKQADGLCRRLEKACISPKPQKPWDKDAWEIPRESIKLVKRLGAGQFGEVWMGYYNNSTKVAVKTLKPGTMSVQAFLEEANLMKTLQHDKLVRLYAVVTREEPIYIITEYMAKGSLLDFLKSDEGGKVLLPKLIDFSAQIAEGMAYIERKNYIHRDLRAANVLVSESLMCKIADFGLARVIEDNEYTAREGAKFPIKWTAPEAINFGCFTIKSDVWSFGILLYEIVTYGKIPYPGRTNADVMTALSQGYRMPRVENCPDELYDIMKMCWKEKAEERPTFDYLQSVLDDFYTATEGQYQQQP
Description: • 1. 10× Reaction Buffer: 500 mM Tris-HCl, pH 7.5, 1 mM EGTA, 1 mM sodium orthovanadate, 1% 2-mercaptoethanol. • 2. Enzyme Dilution Buffer (EDB): 50 mM Tris-HCl, pH 7.5, 1 mM EGTA, 0.1 mM sodium orthovanadate, 0.03% Brij-35, 0.1% 2-mercaptoethanol, 1 mg/ml BSA. • 3. Lyn, active: Dilute to 2-16 ng/μl with EDB. Use 2.5 μl per assay point. • 4. Poly(Glu-4-Tyr) (4:1): Prepare a 1 mg/ml stock. Use 2.5 μl per assay point for a final concentration of 0.1 mg/ml per assay point. • 5. [γ-^32P]ATP: Stock 1 mCi/100 μl (3000 Ci/mmol, obtained from PerkinElmer, Cat. # BLU002A). Make 10 μl aliquots (100 μCi/vial). Before starting the assay, dilute an aliquot to 1 μCi/μl with 90 μl of 75 mM MgCl2 and 500 μM cold ATP in 20 mM MOPS, pH 7.2, 25 mM β-glycerol phosphate, 5 mM EGTA, 1 mM sodium orthovanadate, 1 mM dithiothreitol.
• 1. Add 2.5 μl of 10× Reaction Buffer per assay. • 2. Add 2.5 μl of Poly (Glu-4-Tyr) (4:1). • 3. Add 2.5 μl (5-40 ng) Lyn, active. • 4. Add 7.5 μl of sterile, distilled water. • 5. Add 10 μl of the diluted [γ-^32P]ATP mixture. • 6. Incubate for 10 minutes at 30° C. • 7. Transfer a 20 μl aliquot onto the center of a 2 cm×2 cm P81 paper. • 8. Wash the assay squares three times for 5 minutes with 0.75% phosphoric acid. • 9. Wash the assay squares once for 5 minutes with acetone. • 10. Transfer the assay squares to vial and add 5 ml scintillation cocktail. • 11. Read in scintillation counter. Compare cpm of enzyme samples to cpm of control samples that contain background control.

c-Kit = target: T2, c-Kit (Homo sapiens, UniProt P10721); experiment: c-Kit kinase assay (ProQinase); type: biochemical; conditions: read-out: KIT Inhibition (IC50)
T2 construct: purchased ProQinase (printed 'ProQuinase', Freiburg, Germany)
T2 sequence (P10721 26-976): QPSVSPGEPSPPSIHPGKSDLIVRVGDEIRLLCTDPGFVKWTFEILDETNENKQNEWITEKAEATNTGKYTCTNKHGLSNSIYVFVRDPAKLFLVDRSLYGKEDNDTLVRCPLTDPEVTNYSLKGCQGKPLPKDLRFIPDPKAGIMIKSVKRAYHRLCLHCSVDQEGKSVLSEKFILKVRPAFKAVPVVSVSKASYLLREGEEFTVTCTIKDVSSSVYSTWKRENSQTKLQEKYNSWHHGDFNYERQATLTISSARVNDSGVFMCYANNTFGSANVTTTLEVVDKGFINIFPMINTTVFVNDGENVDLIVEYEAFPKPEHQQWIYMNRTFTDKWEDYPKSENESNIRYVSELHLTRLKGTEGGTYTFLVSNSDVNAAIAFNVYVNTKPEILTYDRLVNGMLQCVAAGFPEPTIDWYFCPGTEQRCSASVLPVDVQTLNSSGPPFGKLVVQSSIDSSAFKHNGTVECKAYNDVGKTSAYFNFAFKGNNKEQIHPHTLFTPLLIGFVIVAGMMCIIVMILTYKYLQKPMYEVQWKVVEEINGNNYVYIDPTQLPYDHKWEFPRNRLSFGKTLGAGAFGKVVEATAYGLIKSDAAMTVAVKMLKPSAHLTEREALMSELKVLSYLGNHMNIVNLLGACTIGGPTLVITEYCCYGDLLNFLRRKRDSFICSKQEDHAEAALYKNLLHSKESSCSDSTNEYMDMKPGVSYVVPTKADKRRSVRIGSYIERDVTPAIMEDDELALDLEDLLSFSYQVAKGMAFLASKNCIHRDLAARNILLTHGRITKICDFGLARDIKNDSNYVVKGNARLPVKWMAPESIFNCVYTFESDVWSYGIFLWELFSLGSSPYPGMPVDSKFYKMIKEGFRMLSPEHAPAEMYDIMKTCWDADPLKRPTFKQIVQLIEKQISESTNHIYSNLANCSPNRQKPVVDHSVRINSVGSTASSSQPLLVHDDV
Description: • c-kit can be assayed, for example, using the PanQinase Activity Assay or ProQuinase (Freiburg, Germany). Briefly:
Assay buffer-60 mM HEPES-NaOH, pH 7.5, 3 mM MgCl2, 3 mM MnCl2, 3 uM Na-orthovanadate, 1.2 mM DTT, 50 ug/ml PEG 20000, 1 uM [γ-^33P] ATP (approx. 5×10^5 cpm per well) • Reaction cocktail-20 ul assay buffer, 5 ul ATP, 5 ul test compound (in 10% DMSO), 10 ul substrate/10 ul enzyme=100 ng (pre-mixed). • The reaction cocktails are incubated at 30° C. for 80 minutes and terminated with addition of 50 ul 2% H3PO4. The plates are aspirated and washed two times with 200 ul H2O or 200 ul NaCl. Incorporation of radiolabelled substrate is determined with a microplate scintillation counter such as described in the Technical Note above.

[2] = read-out: LYN Inhibition (IC50)

| SMILES | IC50 [1] [nM] | IC50 (Cdk5) [nM] | IC50 (Lyn; [2]) [nM] | IC50 (c-Kit) [nM] | IC50 (Lyn; kinase panel, 10 μM ATP, read-out: Lyn IC50) [nM] |
| --- | --- | --- | --- | --- | --- |
| CC(C)N1CCN(C(=O)COc2ccc(-c3n[nH]c4c3C(=O)c3c(NC(=O)NN5CCOCC5)cccc3-4)cc2)CC1 [Compound A37] | < 50 | < 5 | < 50 | < 500 | – |
| COCCN1CCN(Cc2ccc(-c3n[nH]c4c3C(=O)c3c(NC(=O)NN5CCOCC5)cccc3-4)cc2)CC1 [Compound B16, N-[3-(4-{[4-(2-methoxyethyl)piperazinyl]methyl}phenyl)-4-oxoindeno[2,3-d]pyrazol-5-yl](morpholin-4-ylamino)carboxamide dihydrochloride] | < 100 | < 5 | < 100 | < 500 | < 100 |
